Data taken from patent US20250312468A1, “ANTI-PROTAC ANTIBODIES AND COMPLEXES” (Merck Patent GmbH, priority 2021, published 2025).

Assays:
MIC1 = assay: SPR binding of PROTACs to immobilized antibody MIC1; conditions: binding of PROTACs to MIC1, steady-state model
Experimental: The binding affinities of hit antibodies MIC1 and MIC2 to a diverse set of VH032-based PROTACs (FIGS. 8A-8B) was determined by surface plasmon resonance (SPR) in a Biacore T200 instrument. The running buffer consist of PBS, 0.05% Tween-20, 2% DMSO and temperature and flow rate were set to 30° C. and 30 μL/min, respectively. The assay setup is depicted exemplarily in FIG. 7A. CM5 sensor chips were coated with antibody (=ligand; 2500 RU) using standard EDC/NHS chemistry. PROTACs (=analytes) were serially diluted (1 μM-1.9 nM) in running buffer, injected to the instrument in consecutive runs and were captured by the antibody resulting in an increase of the corresponding SPR response. After the association step (300 s), running buffer was injected for 600 s and the PROTAC dissociated from the antibody leading to signal decrease. After each run, residual bound PROTAC was removed from the immobilized antibody by injection of 10 mM glycine/HCl, pH 1.5 for 2×30 s regenerating the antibody for the next association and dissociation cycle. To compensate for matrix effects, the measured SPR response signal was subtracted by the analyte response to an inactivated (EDC/NHS, ethanol amine) reference surface omitting the ligand. Furthermore, a DMSO solvent correction was performed and analyte response was subtracted by the running buffer signal. […]

MIC2 = assay: SPR binding of PROTACs to immobilized antibody MIC2; conditions: MIC2, 1:1 kinetic binding model
Experimental: The binding affinities of hit antibodies MIC1 and MIC2 to a diverse set of VH032-based PROTACs (FIGS. 8A-8B) was determined by surface plasmon resonance (SPR) in a Biacore T200 instrument. The running buffer consist of PBS, 0.05% Tween-20, 2% DMSO and temperature and flow rate were set to 30° C. and 30 μL/min, respectively. The assay setup is depicted exemplarily in FIG. 7A. CM5 sensor chips were coated with antibody (=ligand; 2500 RU) using standard EDC/NHS chemistry. PROTACs (=analytes) were serially diluted (1 μM-1.9 nM) in running buffer, injected to the instrument in consecutive runs and were captured by the antibody resulting in an increase of the corresponding SPR response. After the association step (300 s), running buffer was injected for 600 s and the PROTAC dissociated from the antibody leading to signal decrease. After each run, residual bound PROTAC was removed from the immobilized antibody by injection of 10 mM glycine/HCl, pH 1.5 for 2×30 s regenerating the antibody for the next association and dissociation cycle. To compensate for matrix effects, the measured SPR response signal was subtracted by the analyte response to an inactivated (EDC/NHS, ethanol amine) reference surface omitting the ligand. Furthermore, a DMSO solvent correction was performed and analyte response was subtracted by the running buffer signal. The corrected response was fitted by a 1:1 kinetic binding model yielding the on- (kon) and off-rate (koff) of the PROTAC, as well as its dissociation constant (KD).

CLL1xMIC7 = assay: SPR affinity of VHH clone (antibody fusion) to PROTACs; conditions: CLL1xMIC7 immobilized, 25° C., read-out: KD [M] for antibody binding to PROTAC
Experimental: (§1) The kinetic and affinity parameters of protein-PROTAC interactions were evaluated by SPR. The anti-PROTAC VHH clones MIC5-MIC14 were immobilized as CD33 or CLL1 antibody fusion (the manufacturing of fusion proteins and the used linker is described in chapter 7.9) onto a CM5 (Series S) sensor chip via the standard amine coupling procedure, at 25° C. Prior to immobilization, the carboxymethylated surface of the chip was activated with 400 mM 1-ethyl-3-(3-dimethylaminopropyl)-carbodiimide and 100 mM N-hydroxysuccinimide for 7 min. Hit anti-PROTAC VHH as CD33 and CLL1 antibody fusions were diluted to 10 μg/ml in 10 mM Acetate at pH 4.5 and immobilized on the activated surface chip for 7 min, in order to reach 3,000 to 6,000 response units (RU). The remaining activated carboxymethylated groups were blocked with a 10 min injection of 1 M ethanolamine pH 8. HBS-N, which consists of 10 mM HEPES pH 7.4 and 150 mM NaCl, was used as the background buffer during immobilization. PROTACs were prediluted in DMSO, diluted 1:50 in running buffer (12 mM phosphate pH 7.4, 137 mM NaCl, 2.7 mM KCl, 0.05% Tween20, 2% DMSO) and injected at ten different concentrations using two-fold dilution series, from 1 μM to 0.002 μM. A DMSO solvent correction (1%-3%) was performed to account for variations in bulk signal and to achieve high-quality data. Interaction analysis cycles consisted of a 300 sec sample injection (30 μL/min; association phase) followed by 900 sec of buffer flow (dissociation phase).
(§2) All sensorgrams were processed by first subtracting the binding response recorded from the control surface (reference flow-channel), followed by subtracting of the buffer blank injection from the active flow-channel (target protein immobilized). All datasets were fit to a simple 1:1 Langmuir interaction model to determine the kinetic rate constants. Experiments were performed on a Biacore 8k+ (Cytiva, Uppsala, Sweden) at 25° C. and the interactions were evaluated using the provided Biacore Insight Evaluation software.

CD33xMIC7 = assay: as above; conditions: CD33xMIC7 immobilized, 25° C., read-out: KD [M] for antibody binding to PROTAC
Experimental: as §1, §2

MCF7 = assay: CellTiter-Glo cell viability assay (VHH-based PAX); conditions: MCF7, PROTAC alone
Experimental: (§3) Several cell viability experiments were performed following the procedure described below: Cells were seeded in different media into white cell culture-treated flat and clear bottom multiwell plates followed by overnight incubation in a humid chamber at 37° C. and 5% CO2. Complexation was performed as described in chapter 7.4.
(§4) The solutions were added to the cells based on the antibody concentration using nanodrop dispension using a Tecan D300e Digital Dispenser and all wells were normalized to the same volume using 0.3% TW20 in PBS pH 7.4 and DMSO to a final solvent concentration of 0.05% DMSO and 0.003% TW20. Incubation was performed at 37° C. at 5% or 10% CO2 dependent on the medium. The assay was developed after 3 days if not otherwise stated using CellTiter-Glo Luminescent Cell Viability Assay as described in the manufacturer's protocol. In brief, the plates were equilibrated to room temperature for 30 minutes. 100 mL CellTiter-Glo Buffer were added to the CellTiter-Glo Substrate Flask and mixed well. 30 μL of the reagent was transferred to each well. After incubation for 3 minutes at room temperature while shaking at 550 rpm, the plate was incubated for another 10 minutes at room temperature. The luminescence was read on an Envision reader from Perkin Elmer. Solvent alone and Bortezomib (1.0E-05 M) served as high control (100% viability) and low control (0% viability), respectively. Raw data were converted into percent cell viability relative to the high and low control, which were set to 100% and 0%, respectively. […] The concentration corresponds to the concentration of PROTACs in the PAX.

A431 = assay: CellTiter-Glo cell viability assay (VHH-based PAX); conditions: A431, PROTAC alone
Experimental: as §3, §4

HCC827 = assay: CellTiter-Glo cell viability assay (VHH-based PAX); conditions: HCC827, PROTAC alone
Experimental: as §3, §4

MDAMB468 cells = assay: CellTiter-Glo cell viability assay (VHH-based PAX); conditions: MDAMB468, PROTAC alone
Experimental: as §3, §4

NCIN87 = assay: CellTiter-Glo cell viability assay (VHH-based PAX); conditions: NCIN87, PROTAC alone
Experimental: as §3, §4

HEPG2 cells = assay: CellTiter-Glo cell viability assay (VHH-based PAX); conditions: HEPG2, PROTAC alone
Experimental: as §3, §4

SKBR3 = assay: CellTiter-Glo cell viability assay (VHH-based PAX); conditions: SKBR3, PROTAC alone
Experimental: as §3, §4

SKOV3 = assay: CellTiter-Glo cell viability assay (VHH-based PAX); conditions: SKOV3, PROTAC alone
Experimental: as §3, §4

A549 = assay: CellTiter-Glo cell viability assay (VHH-based PAX); conditions: A549, PROTAC alone
Experimental: as §3, §4

OVCAR3 = assay: CellTiter-Glo cell viability assay (VHH-based PAX); conditions: OVCAR3, PROTAC alone
Experimental: as §3, §4

SMILES | Kd (MIC1) [nM] | Kd (MIC2) [nM] | koff (MIC2) | kon (MIC2) | Kd (CLL1xMIC7) [M] | Kd (CD33xMIC7) [M] | IC50 (MCF7) [nM] | IC50 (A431) [nM] | IC50 (HCC827) [nM] | IC50 (MDAMB468 cells) [nM] | IC50 (NCIN87) [nM] | IC50 (HEPG2 cells) [nM] | IC50 (SKBR3) [nM] | IC50 (SKOV3) [nM] | IC50 (A549) [nM] | IC50 (OVCAR3) [nM]
Cc1ncsc1-c1ccc(CNC(=O)[C@@H]2C[C@@H](O)CN2C(=O)[C@@H](NC(=O)COCCOCCOCCNC(=O)C[C@@H]2N=C(c3ccc(Cl)cc3)c3c(sc(C)c3C)-n3c(C)nnc32)C(C)(C)C)cc1 [MZ1] | 4.9 | 0.12 | NM/1.30E−04 1/s | NM/1.10E+06 1/Ms | – | – | – | – | – | – | – | – | – | – | – | –
Cc1ncsc1-c1ccc(CNC(=O)[C@@H]2C[C@@H](O)CN2C(=O)[C@@H](NC(=O)COCC(C)(COCCOCCOCCNC(=O)C[C@@H]2N=C(c3ccc(Cl)cc3)c3c(sc(C)c3C)-n3c(C)nnc32)COCCOCCOCCNC(=O)C[C@@H]2N=C(c3ccc(Cl)cc3)c3c(sc(C)c3C)-n3c(C)nnc32)C(C)(C)C)cc1 [SIM1] | – | – | – | – | < 1e-10 | 3.8e-09 | 1.5 | 3 | 6.5 | 7.1 | 4 | 14 | 3.6 | 2.4 | 17 | 2.8
